This note sets out measurements from patent US10562897B2, “Substituted 3,4-dihydro-2H-pyrido[1,2-a]pyrazine-1,6-diones as gamma secretase modulators” (Janssen Pharmaceutica NV, priority 2014, dated 2020).

Counter-ions that a name gives are not always drawn.

Usually melting point stands for the temperature of the solid-liquid transition. `Cc1cn(-c2ccc3n(c2=O)CC(C)N(Cc2ccc(C)c(N4CC5CC5C4)c2)C3=O)cn1` (centres unmarked) (as salt: HCl) [Compound 30] showed a melting point of 122 °C. The compound `Cc1cn(-c2ccc3n(c2=O)C[C@@H](C)N(Cc2cc(OC4CC4)cc(C(F)(F)F)c2)C3=O)cn1` (as salt: HCl) [Compound 33] yielded a melting point of 149 °C. In turn, `Cc1cn(-c2ccc3n(c2=O)C[C@@H](C)N(CCc2cc(OC4CC4)cc(C(F)(F)F)c2)C3=O)cn1` (as salt: HCl) [Compound 40] gave a melting point of 102 °C.

The compound `Cc1cn(-c2ccc3n(c2=O)CC(C)N(CCN2CCCC(C(F)(F)F)C2)C3=O)cn1` (centres unmarked) (as salt: HCl) [Compound 43] gave a melting point of 138 °C. For `Cc1cn(-c2ccc3n(c2=O)CC(C)N(C(C)c2cc(OC4CC4)cc(C(F)(F)F)c2)C3=O)cn1` (centres unmarked) (as salt: HCl) [Compound 48], the melting point worked out at 122 °C. Consider `Cc1cn(-c2ccc3n(c2=O)CC(C)N(C(C)c2ccc(OC(F)(F)F)c(O)c2)C3=O)cn1` (centres unmarked) (as salt: HCl) [Compound 51], for which the melting point was found to be 212 °C. In turn, `Cc1cn(-c2ccc3n(c2=O)CC(C)N(C(C)c2ccc(OC(F)(F)F)c(O)c2)C3=O)cn1` (centres unmarked) (as salt: HCl) [Compound 52] registered a melting point of 223 °C.

Compound `Cc1cn(-c2ccc3n(c2=O)C[C@@H](C)N(CC2(c4cc(OC5CC5)cc(C(F)(F)F)c4)CC2)C3=O)cn1` (as salt: HCl) [Compound 53] yielded a melting point of 197 °C. `Cc1cn(-c2ccc3n(c2=O)CCN(C(C)c2coc4cc(F)c(Cl)cc24)C3=O)cn1` (single isomer, unassigned) [Compound 60] came in with a melting point of 234 °C. With `Cc1cn(-c2ccc3n(c2=O)CCN(C(C)c2coc4cc(C(F)(F)F)ccc24)C3=O)cn1` (single isomer, unassigned) [Compound 67], the melting point turned out to be 200 °C. Compound `Cc1cn(-c2ccc3n(c2=O)CCN(C(C)c2coc4cc(C(F)(F)F)ccc24)C3=O)cn1` (single isomer, unassigned) [Compound 68] displayed a melting point of 204 °C. In the case of `Cc1cn(-c2ccc3n(c2=O)C[C@@H](C)N(Cc2cnn4ccc(C(F)(F)F)cc24)C3=O)cn1` [Compound 9], the melting point was 170 °C.

In turn, `Cc1cn(-c2ccc3n(c2=O)CC(C)N(Cc2noc4ccc(Cl)cc24)C3=O)cn1` (centres unmarked) [Compound 14] registered a melting point of 147 °C. On to `Cc1cn(-c2ccc3n(c2=O)C[C@@H](C)N(Cc2cc(C(C)C)nn2CC(F)(F)F)C3=O)cn1` [Compound 19], for which the melting point is 144 °C. As to `Cc1cn(-c2ccc3n(c2=O)C[C@@H](C)N(Cc2cc4cc(C(F)(F)F)ccc4o2)C3=O)cn1` [Compound 26], the melting point is 164 °C. Compound `Cc1cn(-c2ccc3n(c2=O)C[C@@H](C)N(Cc2csc(C(F)(F)F)c2)C3=O)cn1` [Compound 28] gave a melting point of 162 °C.

In turn, `Cc1cn(-c2ccc3n(c2=O)C[C@@H](C)N(Cc2csc(CC(F)(F)F)c2)C3=O)cn1` [Compound 29] gave a melting point of 110 °C. In turn, `Cc1cn(-c2ccc3n(c2=O)CCN(CC2Cc4c(cccc4C(F)(F)F)O2)C3=O)cn1` (centres unmarked) [Compound 44] registered a melting point of 128 °C. Turning to `Cc1cn(-c2ccc3n(c2=O)CCN(Cc2coc4c(F)cc(Cl)cc24)C3=O)cn1` [Compound 56], the melting point was 232 °C. `Cc1cn(-c2ccc3n(c2=O)C[C@@H](C)N(Cc2coc4c(C(F)(F)F)cccc24)C3=O)cn1` [Compound 71] had a melting point of 225 °C. For `Cc1cn(-c2ccc3n(c2=O)CC(C)N(C(C)c2coc4c(F)cc(Cl)cc24)C3=O)cn1` (centres unmarked) [Compound 96], the melting point was 201 °C.

In turn, `Cc1cn(-c2ccc3n(c2=O)C[C@@H](C)N(Cc2coc4c(Cl)c(Cl)ccc24)C3=O)cn1` [Compound 97] gave a melting point of 227 °C. `Cc1cn(-c2ccc3n(c2=O)C[C@@H](C)N(Cc2noc4ccc(C(F)(F)F)cc24)C3=O)cn1` [Compound 101]: the melting point amounted to 140 °C.
